According to patent US5523320A, “N-methyldeacetylcolchiceinamide derivatives” (Ohgen Research Laboratories, Ltd., priority 1993, dated 1996):
In brackets after ≈: the same amount, converted by molar mass. Several values for one entry are separate records, joined by “and”; a condition that tells them apart may be missing. Equal values may be shown once.

How the values were obtained:
[1] = literature / background; cited from earlier work
[2] = test system: cancer cells; settings: literature; cited from earlier work
[3] = test system: CDF male mice; assay: Acute toxicity test (intraperitoneal, 10 days observation); type: in vivo, mouse; settings: i.p.
Source text: Test example 2: Acute toxicity test

[4] = test system: mouse leukemic cells P388/S; assay: In vitro cancer cell proliferation inhibition (Trypan Blue living cell count, 2 days culture); type: cell-based; settings: three separate experiments
Method: (§1) Test example 1: In vitro cancer cell proliferation inhibiting text
(§2) Mouse leukemic cells p388/S and adriamycin-resistant mouse leukemic cells P388/ADR subculturally transplanted in the abdominal cavity of mice were taken out together with the asites therefrom, respectively, and after washing, suspended in RPMI 1640 media (each containing 10% fetal bovine serum and 10 μM 2-mercaptoethanol) to 2×10^5 cells/ml, respectively. 0.5 vol. % each of test solutions (solutions of the compound of the later-described in Example 1 in dimethylsulfoxide) were added to portions of each of these cell suspensions, respectively; and the mixtures were separately put into a 24-well culture plate and subjected to culture for 2 days in a 5% carbon dioxide culturing vessel. A 0.5% Trypan Blue solution was added to each of the cell culture broths in the same amount, and the 50% proliferation inhibitory concentration (IC50) of the compound of Example 1 was determined by counting the number of the cells not stained as living cells under a microscope.

[5] = test system: adriamycin-resistant mouse leukemic cells P388/ADR; assay: as above; type: cell-based; settings: three separate experiments
Method: as §1, §2

Row | Structure (SMILES) | toxicity [1] | pharmacological actions on cancer cells [2] | acute toxicity symptoms: diarrhea or constipation ([3]; groups of high dose) | acute toxicity symptoms: lie of hair ([3]; on and after one day after administration) | acute toxicity symptoms: walking problems and paralysis ([3]; survival cases in the 47 mg/kg administration group) | body weight change ([3]; up to 2 to 4 days after administration and thereafter) | IC50 ([4]; Mus musculus, 48 h, read-out: Cytotoxicity IC50 (50% proliferation inhibitory concentration)) | Cytotoxicity IC50 (50% proliferation inhibitory concentration) ([4]; 2880 min) | IC50 ([5]; Mus musculus, P388/ADR, 48 h, read-out: Cytotoxicity IC50 (50% proliferation inhibitory concentration)) | Cytotoxicity IC50 (50% proliferation inhibitory concentration) ([5]; 2880 min)
1 | COc1cc2c(c(OC)c1OC)-c1ccc(OC)c(=O)cc1C(NC(C)=O)CC2 (stereo not shown) [colchicine] | strong toxicity | has pharmacological actions on cancer cells, gout, etc. |  |  |  |  |  |  |  | 
2 | CNc1ccc2c(cc1=O)C(NC(=O)C1COC(C)(C)O1)CCc1cc(OC)c(OC)c(OC)c1-2 (stereo not shown) [Example 1, N-(O,O-isopropylideneglyceroyl)-N-methyldeacetylcolchiceinamide] |  |  | cases where diarrhea or constipation arose were observed | the lie of hair got worse | walking problems as in the right leg and paralysis of one side of the body | tended to decrease up to 2 to 4 days after administration, but thereafter increased gradually | 3.2 ng/mL (≈ 0.0066 µM) | 4.2 ng/mL and 4.6 ng/mL | 9.2 ng/mL (≈ 0.019 µM) | 11.0 ng/mL and 11.1 ng/mL
